Experiments:
Type in all cases: cell-based, human
eNOS [1] = assay: Immunocytochemistry of eNOS expression in HDMECs; settings: semiquantitative immunocytochemistry, 24 h treatment, DMG-Na 0,005%, 0,02% and 0,05%
Text: (§1) Adulte humane mikrovaskuläre Endothelzellen der Haut (HDMECs) wurden 2023 von Lonza Ltd (Basel, Schweiz) erworben und kultiviert in EBM™-2 Endothelial Cell Growth Basal Medium, ergänzt mit EGM™-2 MV Microvascular Endothelial SingleQuots™ Kit (beide von Lonza Ltd, Basel, Schweiz), enthaltend humanen epidermalen Wachstumsfaktor, vaskulären Endothelial Growth Factor, R^3-Insulin-like Growth Factor-1, Ascorbinsäure, Hydrocortison, humanen Fibroblasten-Wachstumsfaktor-Beta, fötales Rinderserum und Gentamicin/Amphotericin-B und gemäß den Richtlinien des Herstellers kultiviert. Die HDMECs wurden von 2 verschiedenen weiblichen Spendern initiiert und es wurden die Passagen 4 bis 8 wurden für die Experimente verwendet.
HDMECs (5.000 Zellen pro 10 mm runde Glasdeckgläser), die mit DMG-Na (0,005%, 0,02% und 0,05%) behandelt wurden, wurden in 1% Paraformaldehyd (PFA, Merck KGaA, Darmstadt) für 10 Minuten bei Raumtemperatur fixiert und nach einem Waschschritt mit phosphatgepufferter Kochsalzlösung (PBS, Merck KGaA) für 5 Minuten mit -20 °C kalter Ethanol-Essigsäure (2:1) nachfixiert. […]

eNOS [2] = assay: Western blot of eNOS protein content in HDMECs
Text: as §1
HDMECs wurden in 6-Well-Platten ausgesät und für 24 Stunden mit DMG-Na (0,005% und 0,05%) behandelt. Nach der Behandlung wurden die Zellen in Lysispuffer (30 mM TRIS, pH 7,6, 140 mM NaCl, 5 mM EDTA, 50 mM NaF, 1 mM Na3VO4), der mit Proteaseinhibitoren ergänzt wurde, geerntet. Nach kräftigem Vortexen und Zentrifugieren wurde der Proteingehalt der Proben unter Verwendung des Pierce BCA Protein Assay Kits (Thermo Fisher Scientific, Waltham, MA) bestimmt. Gleiche Mengen an Proteinproben wurden einer 7,5%-igen SDS-PAGE unterzogen und auf Nitrocellulose-Membranen (Bio-Rad Laboratories, Hercules, CA) übertragen. […]

HDMECs = assay: Microfluorimetric measurement of NO (DAF-FM DA) in HDMECs; settings: DAF-FM-DA microfluorimetry, increase vs control
Text: as §1
HDMECs wurden mit einer Dichte von 15.000 Zellen pro Well in einer schwarzen 96-WellPlatte mit klarem Boden (Greiner Bio-One, Kremsmünster, Österreich) ausgesät und in Wachstumsmedium bei 37 °C für 24 Stunden kultiviert. Anschließend wurden die Zellen mit 5 µM DAF-FM DA (4-Amino-5-methylamin-2',7'-difluororesceindiacetat) in phenolrotfreiem DMEM (beides von Thermo Fisher Scientific, Waltham, MA), ergänzt mit 0,5% FBS (Serana Europe GmbH, Brandenburg, Deutschland) für 1 Stunde bei 37 °C inkubiert. […]

SMILES: CN(C)CC(=O)O [DMG-Na, N,N-Dimethylglycin-Natriumsalz]
- Expression von eNOS (eNOS [1]): Expression von eNOS nach 24-stündiger Behandlung zu erhöhen
- Proteingehalt von eNOS (eNOS [2]; 24 h, 0,05% DMG-Na, increase vs control, p=0,0189): statistisch signifikant
- Proteingehalt von eNOS (eNOS [2]; 24 h, DMG-Na 0,005% and 0,05%, vs control): dosisabhängig
- zelluläre NO-Produktion (HDMECs; 0.02%, p=0,0002): statistisch signifikant
- zelluläre NO-Produktion (HDMECs; 0.05%, p=0,0001): statistisch signifikant
